Measured values taken from PMC9278120, “Epitope alteration by small molecules and applications in drug discovery” (Chemical Science, 2022).

Key:
amyloid beta (Aβ1–40) [1] = molecular target: T1, amyloid beta (Aβ1–40) (Homo sapiens, UniProt P05067); assay: concentration-dependent 4G8 dot blot (one-site binding fit); ANS fluorescence; FRET; MSD/Simoa; design: gene APP; Aβ1–40; fragment Aβ17–24 also tested by ANS; with 4G8 antibody
amyloid beta (Aβ1–40) [2] = molecular target: T1, amyloid beta (Aβ1–40); assay: fluorescence competition with CRANAD-3; also antibody dot blot, MSD, Simoa and ThT aggregation assay; type: binding; design: gene APP; Aβ1–40 monomers
amyloid beta (Aβ1–40) [3] = molecular target: T1, amyloid beta (Aβ1–40); assay: FRET titration of ternary complex with 4G8 and PE-labelled secondary antibody; dot blot; fluorescence probe in competition; type: binding; design: gene APP; Aβ1–40 monomers (also oligomers and aggregates); with 4G8 antibody

T1 sequence (P05067 672-711): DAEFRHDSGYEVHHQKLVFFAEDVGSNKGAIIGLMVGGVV

Compound: CRANAD-17
- EC50 (amyloid beta (Aβ1–40) [1]): 121 nM

Compound: Cc1ccc(NC(=O)Nc2cc(C(F)(F)F)ccc2F)cc1Nc1ccc2c(c1)NC(=O)/C2=C\c1ccc[nH]1 [GNF-5837]
- Ki (amyloid beta (Aβ1–40) [2]): 4.16 ± 1.04 nM

Compound: CCN(CC)c1ccc(/C=C/C2=CC(/C=C/c3ccc(N(CC)CC)nc3)=[O+][B-](F)(F)O2)cn1 [CRANAD-3]
- FRET titration of ternary complex with 4G8 and PE-labelled secondary antibody; d (amyloid beta (Aβ1–40) [3]): enhanced antibody recognition was due to the formation of the ternary complex of CRANAD-3, Aβs and 4G8 antibody
